{"source": "paper PMC9347208", "about": "“Pharmacological activation of the hERG K^+ channel for the management of the long QT syndrome: A review” (Journal of Arrhythmia, 2022)", "origin": "cited, not measured here", "key": {"[1]": {"system": "hNav1.5 (INa)"}, "[2]": {"system": "hKCNQ1‐KCNE1 (IKs)"}, "[3]": {"system": "hCav1.2 (ICa,L)", "set-up": "method as in column Ref. of the table row"}, "[4]": {"system": "hKir2.1 (IK1)", "settings": "ref [19], [29]"}, "[5]": {"system": "hKv4.3 (Ito)", "settings": "ref [19], [29]"}, "[6]": {"system": "hERG channel", "settings": "astemizole, sertindole, dofetilide, and cisapride, radioligand assays, ref [19] and column References of the table row"}, "[7]": {"system": "IKr", "settings": "native human cardiomyocytes from LQT1 patients; ref [19], [29]"}, "[8]": {"system": "hERG1a and hERG1b", "set-up": "method as in column Ref. of the table row"}, "[9]": {"system": "IK1"}, "[10]": {"system": "INa"}, "[11]": {"system": "neuronal Kv12.1 ether‐à‐ go‐go‐gene‐like (elk3) channel", "set-up": "method as in PMID 24041920, PMID 25809254, PMID 18452879, PMID 29050968, PMID 25191697", "settings": "ref [16], [27], [32], [41], [48], [58], [61], [70], [84]"}, "[12]": {"system": "guinea pig hearts", "settings": "Langendorff‐perfused Guinea pig hearts, high concentrations; ref [16], [27], [32], [41], [48], [58], [61], [70], [84]"}, "[13]": {"system": "hERG channel"}, "[14]": {"system": "hERG channel", "settings": "for Type: type of hERG activator by main mechanism of action, ref [40]"}, "[15]": {"system": "ventricular repolarisation (APD, QT interval)"}, "[16]": {"system": "ICa,L", "settings": "recorded from guinea pig cardiomyocytes"}, "[17]": {"system": "IKs", "set-up": "method as in PMID 15976038, PMID 29050968, PMID 19892732, PMID 31877041, PMID 23840331", "settings": "recorded from isolated guinea pig cardiomyocytes; ref [22], [41], [52], [53], [59], [60]"}, "[18]": {"system": "hERG channel mutants", "set-up": "method as in column Ref. of the table row", "settings": "mutation named in the value"}, "[19]": {"system": "SQT1 model", "set-up": "method as in column Ref. of the table row", "settings": "by creating the substrate for reentry"}, "[20]": {"system": "APD, EADs, and QT prolongation", "set-up": "method as in PMID 15976038, PMID 29050968, PMID 19892732, PMID 31877041, PMID 23840331", "settings": "3 μM; caused by high‐affinity inhibitor dofetilide; ref [22], [41], [52], [53], [59], [60]"}, "[21]": {"system": "E637K hERG mutant", "set-up": "method as in PMID 15976038, PMID 29050968, PMID 19892732, PMID 31877041, PMID 23840331", "settings": "ref [22], [41], [52], [53], [59], [60]"}, "[22]": {"system": "perfused canine atrial preparations", "set-up": "method as in PMID 15976038, PMID 29050968, PMID 19892732, PMID 31877041, PMID 23840331", "settings": "ERP abbreviation and TDR amplification, ref [22], [41], [52], [53], [59], [60]"}, "[23]": {"system": "ICa,L", "set-up": "method as in PMID 29050968, PMID 18042732", "settings": "ventricular cardiomyocytes isolated from rabbit hearts; ref [41], [83]"}, "[24]": {"system": "Ito", "set-up": "method as in PMID 29050968, PMID 18042732", "settings": "ventricular cardiomyocytes isolated from rabbit hearts; ref [41], [83]"}, "[25]": {"system": "Kv1.5 (IKur)", "settings": "50 μM; ref [19], [21]"}, "[26]": {"system": "Dofetilide‐induced arrhythmias", "settings": "after pretreatment; ref [19], [21]"}, "[27]": {"settings": "suggested, as no change to AP amplitude and diastolic potential of guinea pig cardiomyocytes"}, "[28]": {"settings": "recorded from isolated guinea pig cardiomyocytes, ref [22], [41], [52], [53], [59], [60]"}}, "note": "“Also recorded” adds a separate entry of the source. Like-named read-outs stand apart in the source and are kept apart here."}
{"compound": "O=C(COc1ccc(C(=O)c2ccccc2)cc1)Nc1cccnc1", "note": "[ML‐T531]", "values": [{"measurement": "Channel selectivity: effect on recombinant hNav1.5 (INa)", "setting": "[1]", "value": "No effect"}, {"measurement": "Channel selectivity: effect on hKCNQ1‐KCNE1 channels (IKs)", "setting": "[2]; 10 μM, ref [19], [29]", "value": "minor suppressive effect"}, {"measurement": "Channel selectivity: effect on recombinant hCav1.2 (ICa,L)", "setting": "[3]", "value": "No effect"}, {"measurement": "Channel selectivity: effect on recombinant hKir2.1 (IK1)", "setting": "[4]", "value": "No effect"}, {"measurement": "Channel selectivity: effect on recombinant hKv4.3 (Ito)", "setting": "[5]", "value": "No effect"}, {"measurement": "Allosteric effect on the binding of hERG blockers", "setting": "[6]", "value": "Negative effect on the binding"}, {"measurement": "Allosteric effect on the binding of hERG blockers", "setting": "[6]; listed as MLT‐531", "value": "negative allosteric modulators"}, {"measurement": "Reported benefit for LQT: cLQTS, IKr", "setting": "[7]", "value": "IKr increase"}]}
{"compound": "O=C(Nc1cc(C(F)(F)F)ccc1O)Nc1cc(C(F)(F)F)ccc1O", "note": "[NS1643, 1,3‐bis‐(2‐hydroxy‐5‐trifluoromethyl‐phenyl)‐urea]", "values": [{"measurement": "Effect against Nav1.5 channels", "setting": "[1]; ref [32]", "value": "inhibitory effects"}, {"measurement": "Channel selectivity: sensitivity of hERG1a versus hERG1b", "setting": "[8]", "value": "Differential sensitivity"}, {"measurement": "Channel selectivity: effect on cardiac IK1", "setting": "[9]; [27]", "value": "Suggested absence"}, {"measurement": "Channel selectivity: effect on cardiac INa", "setting": "[10]; [27]", "value": "Suggested absence"}, {"measurement": "Channel selectivity: effect on neuronal Kv12.1 (elk3) channel", "setting": "[11]", "value": "Inhibitor"}, {"measurement": "Reported associated pro‐arrhythmic risk: ventricular tachycardia and fibrillation", "setting": "[12]", "value": "Induces ventricular tachycardia and ventricular fibrillation"}, {"measurement": "Reported benefit for LQT: diLQTS, effects of hERG inhibition by drug inhibitors", "setting": "[13]; 10 μM, inhibitors e.g. E‐4031, dofetilide, moxifloxacin, ref [16], [27], [32], [41], [48], [58], [61], [70], [84]", "value": "attenuate electrophysiological effects associated with hERG inhibition by various drug inhibitors; also recorded: did not reverse the inhibition to the control levels"}, {"measurement": "Potency in reducing hERG channel inactivation", "setting": "[14]; ref [16], [31]", "value": "modest potency compared with ICA‐105574"}, {"measurement": "Type", "setting": "[14]", "value": "1, 2, and possibly 3"}, {"measurement": "Efficacy against triggered activity", "setting": "[15]; low concentration, in vitro and ex vivo experimental models, ref [32]", "value": "effective against triggered activity"}, {"measurement": "TDR and instability of the QT interval", "setting": "[15]; only in the presence of an I Ks inhibitor, ref [16]", "value": "markedly amplify"}]}
{"compound": "O=C(O)c1ccccc1Nc1ccc(CCc2ccc(Cl)c(Cl)c2)cc1", "note": "[PD‐118057]", "values": [{"measurement": "Channel selectivity: effect on cardiac ICa,L", "setting": "[16]", "value": "No effect on INa, ICa‐L, IK1, and IKs recorded from isolated guinea pig cardiomyocytes."}, {"measurement": "Channel selectivity: effect on IK1", "setting": "[9]; [28]", "value": "No effect on INa, ICa‐L, IK1, and IKs recorded from isolated guinea pig cardiomyocytes."}, {"measurement": "Channel selectivity: effect on INa", "setting": "[10]; [28]", "value": "No effect on INa, ICa‐L, IK1, and IKs recorded from isolated guinea pig cardiomyocytes."}, {"measurement": "Channel selectivity: effect on IKs", "setting": "[17]", "value": "No effect on INa, ICa‐L, IK1, and IKs recorded from isolated guinea pig cardiomyocytes."}, {"measurement": "Molecular determinants of activity: effect of hERG mutations on agonist activity", "setting": "[18]", "value": "Mutation to F619 and L646 suppresses agonist activity; also recorded: Mutation to C643 and M645 enhances drug activity"}, {"measurement": "Reported associated pro‐arrhythmic risk: SQT1 manifestations", "setting": "[19]", "value": "Recapitulates the electrophysiological and arrhythmic manifestations of SQT1"}, {"measurement": "Reported benefit for LQTS: diLQTS", "setting": "[20]", "value": "prevents APD, EADs, and QT prolongation"}, {"measurement": "Reported benefit for LQTS: cLQTS, rescue of E637K hERG mutant", "setting": "[21]", "value": "Failed to rescue"}, {"measurement": "Reported associated pro‐arrhythmic risk: arrhythmia provocations", "setting": "[22]", "value": "Increases arrhythmia provocations"}, {"measurement": "Type", "setting": "[14]", "value": 4}, {"measurement": "Effect on PRRP and QT interval", "setting": "[15]; ref [21], [60], [61]", "value": "increase the PRRP and shorten the QT interval but potentially to the point of triggering arrhythmia"}]}
{"compound": "O=C(O)c1cccnc1Nc1ccc2c(c1)CN(c1ccc(Cl)c(Cl)c1)C2", "note": "[PD‐307243]", "values": [{"measurement": "Channel selectivity: effect on recombinant hNav1.5 (INa)", "setting": "[1]", "value": "No effect"}, {"measurement": "Channel selectivity: effect on recombinant hKCNQ1‐KCNE1 (IKs)", "setting": "[2]", "value": "No effect"}, {"measurement": "Channel selectivity: effect on ICa,L", "setting": "[23]", "value": "Activates"}, {"measurement": "Channel selectivity: effect on Ito", "setting": "[24]", "value": "no effect"}, {"measurement": "Reported benefit for LQT: activator effect in presence of BeKm‐1", "setting": "[13]; ref [41], [83]", "value": "potentiated"}, {"measurement": "Reported benefit for LQT: diLQTS, interaction with dofetilide", "setting": "[13]; ref [41], [83]", "value": "Dofetilide prevents the activator effect of PD and unmasks its current suppressing effect"}]}
{"compound": "O=C(COc1ccc2ccccc2c1Br)Nc1cccnc1", "note": "[VU0405601]", "values": [{"measurement": "Channel selectivity: effect on recombinant Nav1.5 (INa)", "setting": "[1]; 50 μM, ref [19], [21]", "value": "No or small effect of 50 μM on recombinant cardiac Kv1.5 (IKur), Nav1.5 (INa), and KCNQ1 + KCNE1 (IKs) channels."}, {"measurement": "Channel selectivity: effect on recombinant KCNQ1 + KCNE1 (IKs)", "setting": "[2]; 50 μM, ref [19], [21]", "value": "No or small effect of 50 μM on recombinant cardiac Kv1.5 (IKur), Nav1.5 (INa), and KCNQ1 + KCNE1 (IKs) channels."}, {"measurement": "Channel selectivity: effect on recombinant cardiac Kv1.5 (IKur)", "setting": "[25]", "value": "No or small effect of 50 μM on recombinant cardiac Kv1.5 (IKur), Nav1.5 (INa), and KCNQ1 + KCNE1 (IKs) channels."}, {"measurement": "Allosteric effect on the binding of hERG blockers", "setting": "[6]", "value": "negative allosteric modulators; also recorded: weaken interactions"}, {"measurement": "Reported benefit for LQT: diLQTS, dofetilide‐induced arrhythmias", "setting": "[26]", "value": "reduced"}]}
